From patent US20210379056A1, “SUBSTITUTED PYRAZOLE FUSED RING DERIVATIVE, PREPARATION METHOD THEREFOR, AND APPLICATION THEREOF” (Applied Pharmaceutical Science, Inc., priority 2018, published 2021)
Counter-ions that a name gives are not always drawn.

What was measured:
Ret wt = biological target: T1, Ret wt (Homo sapiens, UniProt P07949); experiment: HTRF kinase activity test, RET wild type; format: biochemical; settings: Table 3; read-out: RET Enzyme (wild type) IC50
T1 construct: purchased Invitrogen PV3082
T1 sequence (P07949 29-1114): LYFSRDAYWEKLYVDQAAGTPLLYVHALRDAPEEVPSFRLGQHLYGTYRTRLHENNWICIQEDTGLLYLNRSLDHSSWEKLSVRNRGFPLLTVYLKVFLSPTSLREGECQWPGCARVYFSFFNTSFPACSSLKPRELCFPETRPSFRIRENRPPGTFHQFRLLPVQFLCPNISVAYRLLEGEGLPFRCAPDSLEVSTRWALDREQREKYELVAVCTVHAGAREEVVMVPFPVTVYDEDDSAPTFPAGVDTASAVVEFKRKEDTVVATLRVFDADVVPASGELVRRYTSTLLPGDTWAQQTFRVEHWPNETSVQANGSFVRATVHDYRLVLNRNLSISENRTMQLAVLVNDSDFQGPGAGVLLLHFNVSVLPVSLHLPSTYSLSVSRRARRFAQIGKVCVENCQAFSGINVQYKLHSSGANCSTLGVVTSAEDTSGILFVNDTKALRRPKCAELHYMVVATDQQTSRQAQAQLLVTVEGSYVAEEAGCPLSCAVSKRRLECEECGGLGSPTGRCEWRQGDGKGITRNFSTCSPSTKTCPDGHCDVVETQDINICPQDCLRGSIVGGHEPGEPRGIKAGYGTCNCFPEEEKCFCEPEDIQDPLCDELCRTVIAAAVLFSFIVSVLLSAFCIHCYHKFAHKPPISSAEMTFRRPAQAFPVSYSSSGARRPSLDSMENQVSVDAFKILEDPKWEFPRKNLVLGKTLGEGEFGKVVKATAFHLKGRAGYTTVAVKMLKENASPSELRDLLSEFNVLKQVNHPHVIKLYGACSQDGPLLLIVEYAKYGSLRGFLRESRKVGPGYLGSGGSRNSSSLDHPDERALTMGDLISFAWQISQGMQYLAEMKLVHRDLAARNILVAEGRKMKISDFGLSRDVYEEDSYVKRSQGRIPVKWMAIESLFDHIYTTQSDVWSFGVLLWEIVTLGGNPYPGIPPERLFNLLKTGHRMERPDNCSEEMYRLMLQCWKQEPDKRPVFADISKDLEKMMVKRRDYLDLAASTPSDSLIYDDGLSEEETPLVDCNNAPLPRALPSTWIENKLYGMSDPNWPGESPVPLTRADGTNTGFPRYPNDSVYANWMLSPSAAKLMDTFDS
Procedure: This test combined peptide substrates and a single proprietary monoclonal antibody with HTRF technology, which was a highly sensitive and stable technology for detecting molecular interactions of proteins. The enzyme phosphorylates the substrate, then the Eu-labeled antibody binds to the phosphorylated substrate, and streptavidin-XL665 binds to all substrates. The TR-FRET signal was generated by the HTRF principle. […] Based on this, the inhibitory effect was evaluated.
The other compounds were diluted 3-fold gradiently with DMSO from the 10 mM stock solution to a total of 10 concentrations respectively.
Adding 4 volumes of distilled water to 1 volume of enzyme buffer 5×; 5 mM MgCl2; 1 mM DTT.
b) centrifuging the compound plate for 1 minute at 1000 g.
c) sealing the test board.
f) adding 4 μl of 1× kinase buffer to each well of the test plate, centrifuging the sample plate at 1000 g for 30 seconds, and placing it at room temperature for 10 minutes.
g) preparing a solution of 5× TK-substrate-biotin ([…]) in kinase buffer and 5×ATP (50 μM) in kinase buffer respectively.
h) starting the reaction by adding 2 μl STK-substrate-biotin and 2 μl ATP (prepared in the step g).
i) centrifuging the sample plate for 30 seconds at 1000 g. Sealing the test board and placing it at room temperature for 30 minutes.
) centrifuging at 1000 g for 30 seconds and placing it at room temperature for 1 hour.
The inhibition rate % was calculated as follows:
Inhibition rate %=[1−(fluorescence signal value of test compound−fluorescence signal value of positive control)/(average ratio of negative control−average ratio of positive control)]*100%
Ratio: generated from the measured fluorescence signal value
The average ratio of the positive control is the average ratio of the positive control (200 nM AT13148) in the sample plate;
The average ratio of negative controls is the average ratio of negative controls (0.1% DMSO) in the sample plate.
GraphPad 6.0 was used to fit the logarithm of the % inhibition rate and the compound concentration into a nonlinear regression (dose response−variable slope) to calculate the IC50 value.

TT Cell = experiment: Cell inhibitory activity test (CCK8); format: cell-based; settings: Table 3, 72 hours incubation
Procedure: Cell Inhibitory Activity Test
1. preparing 90 μl of cell suspension in a 96-well plate with 4000 cells/well. Pre-incubating the culture plate in an incubator for 24 hours (37° C., 5% CO2).
2. adding 10 μl of test compounds of different concentrations to each well of cells, and each compound has multiple wells.
3. incubating the culture plate in the incubator for 72 hours.
4. adding 10 μl of CCK8 solution to each well (be careful not to generate bubbles in the well, otherwise they would affect the reading of the OD value).
5. incubating the culture plate in the incubator for 1-2 hours.
6. measuring the absorbance at 450 nm with a microplate reader.
7. according to the compound concentration and absorbance value, GraphpadPrism software was used to calculate the IC50 of each compound.

[1] = test system: RET wild-type, mutant and/or fusion-type; experiment: Overall statement on RET inhibitory activity (summary of Table 3); settings: statement in words summarising Table 3
Source text: As shown in the above table, the example compounds of the present disclosure have improved inhibitory activity against RET wild-type, mutant and/or fusion-type.

| Compound | IC50 (Ret wt) | IC50 (TT Cell) | inhibitory activity against RET wild-type, mutant and/or fusion-type [1] | IC50 (TT Cell; Homo sapiens, TT) |
| --- | --- | --- | --- | --- |
| 2-amino-4-(6-(4-((2-fluorobenzyl)piperazine-6-(1-methyl-1H-pyrazol-4-yl)pyrazolo[1,5-a]pyridine-3-carbonitrile [APS015] | 1.7 nM | 27.7 nM | excellent activity | – |
| Cn1cc(-c2cc(-c3ccc(N4CCN(Cc5cncc(F)c5)CC4)nc3)c3c(C#N)c(N)nn3c2)cn1 [APS014] | 1 nM | – | excellent activity | 44.6 nM |
| Cn1cc(-c2cc(-c3ccc(N4CCN(Cc5cccc(F)c5)CC4)nc3)c3c(C#N)c(N)nn3c2)cn1 [APS019] | < 1 nM | – | excellent activity | 7.8 nM |
| Cn1cc(-c2cc(-c3ccc(N4CCN(Cc5cc(F)ccc5F)CC4)nc3)c3c(C#N)c(N)nn3c2)cn1 [APS020] | 1.1 nM | – | excellent activity | 14.3 nM |
| Cc1cccnc1CN1CCN(c2ccc(-c3cc(-c4cnn(C)c4)cn4nc(N)c(C#N)c34)cn2)CC1 [APS022] | 2.2 nM | – | excellent activity | 45.5 nM |
| Cn1cc(-c2cc(-c3ccc(N4CCN(Cc5c(F)cccc5F)CC4)nc3)c3c(C#N)c(N)nn3c2)cn1 [APS024, 2-amino-4-(6-(4-(2,6-difluorobenzyl)piperazin-1-yl)pyridin-3-yl)-6-(1-methyl-1H-pyrazole-4-yl)pyrazolo[1,5-a]pyridine-3-carbonitrile] | 1 nM | – | excellent activity | 7.1 nM |
| Cc1ccnc(CN2CCN(c3ccc(-c4cc(-c5cnn(C)c5)cn5nc(N)c(C#N)c45)cn3)CC2)c1 [APS025] | 1.4 nM | – | excellent activity | 38.2 nM |
| COc1ccc(CN2CCN(c3ccc(-c4cc(-c5cnn(C)c5)cn5nc(N)c(C#N)c45)cn3)CC2)cn1 [APS068, 2-amino-4-(6-(4-((6-methoxypyridin-3-yl)methyl)piperazin-1-yl)pyridin-3-yl)-6-(1-methyl-1H-pyrazol-4-yl)pyrazolo[1,5-a]pyridine-3-carbonitrile] | – | – | excellent activity | 11.3 nM |
| Cc1nn2cc(-c3cnn(C)c3)cc(-c3ccc(N4CCN(C(=O)Cc5ccc(F)cn5)CC4)nc3)c2c1C#N [APS071, 2-methyl-4-(6-(4-(2-(5-fluoropyridin-2-yl)acetyl)piperazin-1-yl)pyridin-3-yl)-6-(1-methyl-1H-pyrazol-4-yl)pyrazolo[1,5-a]pyridine-3-carbonitrile] | 64.6 nM | – | – | – |
| Cc1nn2cc(-c3cnn(C)c3)cc(-c3ccc(N4CCC(Cc5ccccn5)CC4)nc3)c2c1C#N [APS072, 2-methyl-6-(1-methyl-1H-pyrazol-4-yl)-4-(6-(4-(pyridin-2-yl-methyl)piperidin-1-yl)pyridine-3-yl)pyrazolo[1,5-a]pyridine-3-carbonitrile] | 78.3 nM | – | – | – |
| Cn1cc(-c2cc(-c3ccc(N4CCN(Cc5ccncc5)CC4)nc3)c3c(C#N)c(N)nn3c2)cn1 [APS078, 2-amino-6-(1-methyl-1H-pyrazol-4-yl)-4-(6-(4-(pyridin-4-yl-methyl)piperazin-1-yl)pyridine-3-yl)pyrazolo[1,5-a]pyridine-3-carbonitrile] | – | – | – | 57.1 nM |
| Cn1cc(-c2cc(-c3ccc(N4CCN(Cc5ccc(F)c(F)c5)CC4)nc3)c3c(C#N)c(N)nn3c2)cn1 [APS079, 2-amino-4-(6-(4-(3,4-difluorobenzyl)piperazin-1-yl)pyridin-3-yl)-6-(1-methyl-1H-pyrazole-4-yl)pyrazolo[1,5-a]pyridine-3-carbonitrile] | – | – | – | 120 nM |
| COc1ccc(CN2CCN(c3ccc(-c4cc(-c5cnn(C)c5)cn5nc(O)c(C#N)c45)cn3)CC2)cn1 [APS083, 2-hydroxy-4-(6-(4-((6-methoxypyridin-3-yl)methyl)piperazin-1-yl)pyridin-3-yl)-6-(1-methyl-1H-pyrazol-4-yl)pyrazolo[1,5-a]pyridine-3-carbonitrile] | 212 nM | – | – | – |
| COc1ccc(CN2CCN(c3ccc(-c4cc(-c5cnn(C)c5)cn5nc(F)c(C#N)c45)cn3)CC2)cn1 [APS084, 2-fluoro-4-(6-(4-((6-methoxypyridin-3-yl)methyl)piperazin-1-yl)pyridin-3-yl)-6-(1-methyl-1H-pyrazol-4-yl)pyrazolo[1,5-a]pyridine-3-carbonitrile] | – | – | – | 342 nM |
| COc1ccc(CN2CCN(c3ccc(-c4cc(-c5cnn(C)c5)cn5nc(NC(C)=O)c(C#N)c45)cn3)CC2)cn1 [APS085, N-(3-cyano-4-(6-(4-((6-methoxypyridin-3-yl)methyl)piperazin-1-yl)pyridin-3-yl)-6-(1-methyl-1H-pyrazol-4-yl)pyrazolo[1,5-a]pyridin-2-yl)acetamide] | 865 nM | – | – | – |
| CNc1nn2cc(-c3cnn(C)c3)cc(-c3ccc(N4CCN(Cc5ccc(OC)nc5)CC4)nc3)c2c1C#N [APS086, 2-methylamino-4-(6-(4-((6-methoxypyridin-3-yl)methyl)piperazin-1-yl)pyridin-3-yl)-6-(1-methyl-1H-pyrazol-4-yl)pyrazolo[1,5-a]pyridine-3-carbonitrile] | 234 nM | – | – | – |
| COc1ccc(CN2C3CC2CN(c2cnc(-c4cc(OC[C@@H]5CNCCO5)cn5nc(F)c(C#N)c45)cn2)C3)cn1 [APS088, 2-fluoro-4-(5-(6-((6-methoxypyridin-3-yl)methyl)-3,6-diazabicyclo[3.1.1]heptan-3-yl)pyrazin-2-yl)-6-(((S)-morpholin-2-yl)methoxy)pyrazolo[1,5-a]pyridine-3-carbonitrile trifluoroacetate] | – | – | – | 265 nM |
| CCOc1cc(-c2ccc(N3CCN(Cc4ccc(OC)nc4)CC3)nc2)c2c(C#N)c(N)nn2c1 [APS099] | – | – | excellent activity | 16.2 nM |
| COCCOc1cc(-c2ccc(N3CCN(Cc4ccc(OC)nc4)CC3)nc2)c2c(C#N)c(N)nn2c1 [APS100, 2-amino-6-(2-methoxyethoxy)-4-(6-(4-((6-methoxypyridin-3-yl)methyl)piperazin-1-yl)pyridine-3-yl)pyrazolo[1,5-a]pyridine-3-carbonitrile] | – | – | excellent activity | 22.4 nM |
| COc1ccc(CN2C3CC2CN(c2ccc(-c4cc(OCC(C)(C)OC)cn5nc(N)c(C#N)c45)cn2)C3)cn1 [APS110, 2-amino-6-(2-methoxy-2-methylpropoxy)-4-(6-(6-((6-methoxypyridin-3-yl)methyl)-3,6-diazabicyclo[3.1.1]heptan-3-yl)pyridin-3-yl)pyrazolo[1,5-a]pyridine-3-carbonitrile] | – | – | – | 198 nM |
| CCOc1cc(-c2ccc(N3CC4CC(C3)N4Cc3cncc(F)c3)nc2)c2c(C#N)c(N)nn2c1 [APS111, 2-amino-6-ethoxy-4-(6-(6-((5-fluoropyridin-3-yl)methyl)-3,6-diazabicyclo[3.1.1]heptane-3-yl)pyridin-3-yl)pyrazolo[1,5-a]pyridine-3-carbonitrile] | – | – | excellent activity | 6.4 nM |
| CCOc1cc(-c2ccc(N3CC4CC(C3)N4Cc3cncc(Cl)c3)nc2)c2c(C#N)c(N)nn2c1 [APS112, 2-amino-4-(6-(6-((5-chloropyridin-3-yl)methyl)-3,6-diazabicyclo[3.1.1]heptan-3-yl)pyridine-3-yl)-6-ethoxypyrazolo[1,5-a]pyridine-3-carbonitrile] | 18.9 nM | – | – | – |
| COc1ccc(CN2C3CC2CN(c2ccc(-c4cc(OCCOC(C)C)cn5nc(N)c(C#N)c45)cn2)C3)cn1 [APS120, 2-amino-6-(2-isopropoxyethoxy)-4-(6-(6-((6-methoxypyridin-3-yl)methyl)-3,6-diazabicyclo [3.1.1]heptan-3-yl)pyridin-3-yl)pyrazolo[1,5-a]pyridine-3-carbonitrile] | – | – | excellent activity | 16.9 nM |
